This is an account of results in paper doi:10.64898/2025.12.27.696692v1, “A coelenterazine-dependent luciferase from the deep-sea coral Anthoptilum murrayi Kölliker, 1880 (Cnidaria: Octocorallia: Pennatulacea)” (biorxiv, 2025).

A word on the Km: it is the concentration of substrate that gives half-maximal velocity.

This assay concerns T1, AnmLuc (recombinant Anthoptilum murrayi luciferase).
T1 construct: codon-optimised, pET-28a(+), N-terminal His6 (no cleavage told); E. coli ArcticExpress (DE3), Ni-NTA
Briefly: luminometry, Michaelis-Menten nonlinear fit. The format is biochemical. The conditions noted are these: 50 mM sodium phosphate pH 7.5, 25 °C; coelenterazine 0.04–50 µM.

Turning to `Oc1ccc(Cc2nc3c(Cc4ccccc4)nc(-c4ccc(O)cc4)cn3c2O)cc1` [coelenterazine], the Km amounted to 3.39 µM.
